Results taken from US4760088A, “Biocidal derivatives of catechins” (Board of Control of Michigan Technological University, priority 1986, dated 1988).
In brackets after ≈: the same amount, converted by molar mass. Where two headings read alike, the source gives them in different places.

Legend:
Type in all cases: cell-based
bacteria = test: Bactericidal effect (overall statement); settings: at the concentrations tested
Procedure: (§1) Tests were made to determine the biocidal properties of the epicatechin-4-alkylsulfides prepared in Examples 1 and 2 on different wood-rotting fungi and bacteria.
(§2) Agar plates containing the test compounds were made as above, but with brain-heart infusion agar. The plates were inoculated with a standardized suspension of bacterial cells using a calibrated 3 mm loop and incubated at 35° C. After one day (two days for Micrococcus luteus), the number of resulting bacteria cultures were counted. Streptomycin was used under the same conditions on each test organism for a comparison.

fungi = test: Fungicidal effect against a variety of fungi (overall statement); settings: at the concentrations tested
Procedure: as §1
(§3) Agar plates containing the epicatechin-4-alkylsulfide to be tested were prepared by adding one part of an ethanol solution containing a known concentration of the test compound to 99 parts of molten malt extract agar. After thorough mixing, the medium was poured into 8 cm petri dishes. When the agar had cooled and hardened, the plates were inoculated by placing in the center of the plate a 5 mm diameter plug taken from an agar plate containing an actively growing culture of the test organism and incubated at 26° C. The diameter of the mycelium formed was measured when the culture on a control plate (containing no test compound) had reached the perimeter of the petri dish, or after seven days, whichever came first. Three duplicates were run for each test compound/test organism combination.

Poria placenta = test: Biocidal effect on wood-destroying fungi, brown-rotters (agar plate mycelium growth); settings: no growth observed; malt extract agar, 26° C.; max. tested 1000 ppm; read-out: Minimum Inhibitory Concentration (MIC)
Procedure: as §1, §3

Geophyllum trabeum = test: as above; settings: no growth observed; malt extract agar, 26° C.; max. tested 1000 ppm; read-out: Minimum Inhibitory Concentration (MIC)
Procedure: as §1, §3

Wolfiporia cocos = test: as above; settings: no growth observed, malt extract agar, 26° C., max. tested 1000 ppm, read-out: Minimum Inhibitory Concentration (MIC)
Procedure: as §1, §3

Klebsiella pneumoneae = test: Biocidal effect on bacteria, gram-negative (agar plate); settings: 24 h, read-out: Minimum Inhibitory Concentration (MIC)
Procedure: as §1, §2

Escherchia coli = test: as above; settings: 24 h; no colonies observed; brain-heart infusion agar, 35° C., one day; max. tested 500 ppm; read-out: Minimum Inhibitory Concentration (MIC)
Procedure: as §1, §2

Coriolus versicolor = test: Biocidal effect on wood-destroying fungi, white-rotters (agar plate mycelium growth); settings: Trametes versicolor; no growth observed; malt extract agar, 26° C.; max. tested 1000 ppm; read-out: Minimum Inhibitory Concentration (MIC)
Procedure: as §1, §3

Pycnoporus cinnabarinus = test: as above; settings: Trametes cinnabarina; no growth observed; malt extract agar, 26° C.; max. tested 1000 ppm; read-out: Minimum Inhibitory Concentration (MIC)
Procedure: as §1, §3

[1] = tested on: Phanerochaete chrysosporium; test: as above; settings: Phanerodontia chrysosporium; no growth observed; malt extract agar, 26° C.; max. tested 1000 ppm; read-out: Minimum Inhibitory Concentration (MIC)
Procedure: as §1, §3

Lecythophora hoffmannii = test: Biocidal effect on wood-destroying fungi, soft-rotters (agar plate mycelium growth); settings: Coniochaeta hoffmannii; no growth observed; malt extract agar, 26° C.; max. tested 1000 ppm; read-out: Minimum Inhibitory Concentration (MIC)
Procedure: as §1, §3

Chaetomium globosom = test: as above; settings: no growth observed, malt extract agar, 26° C., max. tested 1000 ppm, read-out: Minimum Inhibitory Concentration (MIC)
Procedure: as §1, §3

Scytalidium lignicola = test: as above; settings: no growth observed, malt extract agar, 26° C., max. tested 1000 ppm, read-out: Minimum Inhibitory Concentration (MIC)
Procedure: as §1, §3

Streptococcus faciens = test: Biocidal effect on bacteria, gram-positive (agar plate); settings: 24 h, read-out: Minimum Inhibitory Concentration (MIC)
Procedure: as §1, §2

Bacillus cereus = test: as above; settings: 24 h, read-out: Minimum Inhibitory Concentration (MIC)
Procedure: as §1, §2

Micrococcus liteus = test: as above; settings: 48 h, read-out: Minimum Inhibitory Concentration (MIC)
Procedure: as §1, §2

Enterobacter cloacae = test: Biocidal effect on bacteria, gram-negative (agar plate); settings: 24 h, read-out: Minimum Inhibitory Concentration (MIC)
Procedure: as §1, §2

Pseudomonas aeruginosa = test: as above; settings: 24 h, read-out: Minimum Inhibitory Concentration (MIC)
Procedure: as §1, §2

gram-positive bacteria = test: Effect against gram-positive bacteria compared with streptomycin (overall statement); settings: versus streptomycin under the same conditions
Procedure: as §1, §2

[2] = no colonies observed, brain-heart infusion agar, 35° C., one day, max. tested 500 ppm
[3] = no colonies observed, brain-heart infusion agar, 35° C., two days, max. tested 500 ppm

Structure (SMILES) | fungicidal properties (fungi) | MIC (Poria placenta) [µg/mL] | MIC (Geophyllum trabeum) [µg/mL] | MIC (Wolfiporia cocos) [µg/mL] | MIC (Klebsiella pneumoneae; [2]) [µg/mL] | MIC (Escherchia coli) [µg/mL] | MIC (Coriolus versicolor) [µg/mL] | MIC (Pycnoporus cinnabarinus) [µg/mL] | MIC [1] [µg/mL] | MIC (Lecythophora hoffmannii) [µg/mL] | MIC (Chaetomium globosom) [µg/mL] | MIC (Scytalidium lignicola) [µg/mL] | MIC (Streptococcus faciens; [2]) [µg/mL] | MIC (Bacillus cereus; [2]) [µg/mL] | MIC (Micrococcus liteus; [3]) [µg/mL] | MIC (Enterobacter cloacae; [2]) [µg/mL] | MIC (Pseudomonas aeruginosa; [2]) [µg/mL] | other results
Oc1cc(O)c2c(c1)O[C@H](c1ccc(O)c(O)c1)[C@H](O)C2 [Epicatechin, reference compound] | no fungicidal | – | – | – | – | – | – | – | – | – | – | – | – | – | – | – | – | bactericidal properties (bacteria): minimal bactericidal properties
CCCCCCCCCCCCSC1c2c(O)cc(O)cc2OC(c2ccc(O)c(O)c2)C1O (stereo not shown) [C12] | – | 1000 | 1000 | 1000 | 500 (≈ 1020 µM) | 500 (≈ 1020 µM) | 1000 | 1000 | 1000 | 1000 | 1000 | 100 | 75 (≈ 153 µM) | 50 (≈ 102 µM) | 50 (≈ 102 µM) | – | – | –
CCCCCCCCSC1c2c(O)cc(O)cc2OC(c2ccc(O)c(O)c2)C1O (stereo not shown) [C8] | effective fungicide | 250 | 1000 | 1000 | 500 (≈ 1150 µM) | 500 (≈ 1150 µM) | 250 | 1000 | 100 | 400 | 1000 | 25 | 60 (≈ 138 µM) | 20 (≈ 46 µM) | 40 (≈ 92 µM) | – | – | –
[H]/N=C(/N)N[C@H]1[C@H](O)[C@@H](O)[C@H](O[C@@H]2O[C@@H](C)[C@](O)(C=O)[C@H]2O[C@@H]2O[C@@H](CO)[C@H](O)[C@@H](O)[C@@H]2NC)[C@@H](N/C(N)=N\[H])[C@@H]1O [Strep, Streptomycin, reference compound] | – | – | – | – | – | 5 (≈ 8.6 µM) | – | – | – | – | – | – | – | – | – | – | – | MIC (Enterobacter cloacae): 1 µg/mL (≈ 1.72 µM); MIC (Pseudomonas aeruginosa): 50 µg/mL (≈ 86 µM); MIC (Klebsiella pneumoneae): 8 µg/mL (≈ 13.8 µM); MIC (Streptococcus faciens): 50 µg/mL (≈ 86 µM); MIC (Bacillus cereus): 20 µg/mL (≈ 34.4 µM); MIC (Micrococcus liteus): 8 µg/mL (≈ 13.8 µM)
CCCCCCSC1c2c(O)cc(O)cc2OC(c2ccc(O)c(O)c2)C1O (stereo not shown) [C6] | – | 500 | 1000 | 500 | 500 (≈ 1230 µM) | 300 (≈ 738 µM) | 800 | 500 | 250 | 800 | 500 | 80 | 200 (≈ 492 µM) | 80 (≈ 197 µM) | 50 (≈ 123 µM) | 300 (≈ 738 µM) | 500 (≈ 1230 µM) | –
CCCCCCCCCCSC1c2c(O)cc(O)cc2OC(c2ccc(O)c(O)c2)C1O (stereo not shown) [C10] | effective fungicide | 1000 | 1000 | – | 500 (≈ 1080 µM) | 500 (≈ 1080 µM) | 200 | – | 50 | 300 | – | 8 | 30 (≈ 64.8 µM) | 5 (≈ 10.8 µM) | 5 (≈ 10.8 µM) | 500 (≈ 1080 µM) | 300 (≈ 648 µM) | effectiveness against gram-positive bacteria compared with streptomycin (gram-positive bacteria): substantially more effective
CCCCCCCCCCCCCCCCSC1c2c(O)cc(O)cc2OC(c2ccc(O)c(O)c2)C1O (stereo not shown) [C16] | – | 1000 | 1000 | – | 500 (≈ 914 µM) | 500 (≈ 914 µM) | 1000 | – | 1000 | 1000 | – | 200 | 100 (≈ 183 µM) | 75 (≈ 137 µM) | 75 (≈ 137 µM) | 500 (≈ 914 µM) | 50 (≈ 91.4 µM) | –
